We go through two compounds from patent US20160274087A1, “SCREENING ASSAY FOR AGENTS THAT INFLUENCE BETA CELL NUMBER AND/OR PHENOTYPE” (VRIJE UNIVERSITEIT BRUSSEL, priority 2013, published 2016).

Series [1] in a line: Metabolic effects of in vivo dexamethasone administration.
The next series concerns beta cells. Briefly: Immunohistochemical analysis of Ki67 in pancreas after dexamethasone injection. To be noted: DEX 1 mg/Kg BW daily for 5 days; data not shown. It counts as in vivo, rat.
Series [2] concerns selected gene targets in FACS-purified beta cells. Briefly: Q-PCR on FACS-purified beta cells from dexamethasone-injected rats. As to conditions: 5 single injections DEX 1 mg/kg BW daily.
Source text: Control rats were given vehicle (saline).
RNA was extracted using RNeasy columns (Qiagen), and quality was verified using an Agilent Bioanalyzer. Following removal of genomic DNA (TURBO DNA-free, Ambion) and reverse-transcription (High-Capacity cDNA Archive Kit, Applied Biosystems), gene targets were amplified on an ABI Prism 7700 using TaqMan Universal PCR Master Mix and TaqMan MGB probes (Applied Biosystems, assay IDs available on request). Expression levels of target genes were normalized to 4 housekeeping genes (β-actin, HPRT1, rplp2 and psmc5) (ΔCt) and expressed versus a control condition as calibrator (comparative ΔΔCt method).
Series [3] relates to rat beta cells. Briefly: Beta cell viability / cell death (propidium iodide assay). It counts as cell-based. To be noted: LOPAC screen at 1 μM; adult rat beta cells; day 6; control medium 97. The source says:
Numbers of living beta cells were obtained by subtracting the PI-positive cell numbers from the Ho-positive cell numbers, and correcting for the percent insulin-negative cells, as determined following insulin-immunofluorescence staining. They were expressed as percent of the numbers on day 1. […] To detect beta cells that underwent two successive cycles, cells were sequentially exposed to two different thymidine-analogs, first EdU from day 3 to 6, and then BrdU (100 μmol/l) from day 7 to 10, with a 24-hour label-free period in between. EdU-positive (EdU^+) nuclei were detected with the Click-iT Assay kit (Invitrogen), while BrdU-positive (BrdU^+) nuclei were identified with anti-BrdU antibody.
Absolute number of cells was determined by whole-well imaging using the BD-PathwayBioimager855 (BD-Biosciences). IPLab and AttoVision software packages (BD-Biosciences) were used for image background subtraction, segmentation and quantification.
Freshly purified beta cells were cultured in control medium for 24 h prior to the addition of the LOPAC test compounds (day 1). The culture medium was refreshed on day 3 and the cells were then cultured further with 5-ethynyl-2′-deoxyuridine (EdU; 10 μM) up to day 6. […] Thus, a compound is considered a hit only if it increases the percent EdU incorporation to above three standard deviation of the plate-averaged percent EdU incorporation.

Series [4] has as its system rat beta cells. The series is described as follows: Beta cell DNA synthesis/proliferation by EdU (and BrdU) incorporation, incl. LOPAC screen. It counts as cell-based. As to conditions: LOPAC screen at 1 μM, adult rat beta cells, EdU day 3 to 6. The method, then:
On day 1, 9 and 15 of culture, total numbers of living beta cells per well were determined by semi-automatic cell count, after Hoechst 33342 (Ho) and propidium iodide (PI) staining. Numbers of living beta cells were obtained by subtracting the PI-positive cell numbers from the Ho-positive cell numbers, and correcting for the percent insulin-negative cells, as determined following insulin-immunofluorescence staining. They were expressed as percent of the numbers on day 1. Each condition was also evaluated for increases in the percentage of proliferating beta cells (incorporating the thymidine-analogue 5-ethynyl-2′-deoxyuridine, EdU; 100 μmol/l). To detect beta cells that underwent two successive cycles, cells were sequentially exposed to two different thymidine-analogs, first EdU from day 3 to 6, and then BrdU (100 μmol/l) from day 7 to 10, with a 24-hour label-free period in between. EdU-positive (EdU^+) nuclei were detected with the Click-iT Assay kit (Invitrogen), while BrdU-positive (BrdU^+) nuclei were identified with anti-BrdU antibody.
Freshly purified beta cells were cultured in control medium for 24 h prior to the addition of the LOPAC test compounds (day 1). The culture medium was refreshed on day 3 and the cells were then cultured further with 5-ethynyl-2′-deoxyuridine (EdU; 10 μM) up to day 6. Cell viability and percentage EdU incorporation were quantified after imaging and image analysis using the BD Pathway Bioimager, as described before (Assefa et al., 2014). To test the significance of compound effect on beta cell proliferation, average Z-score for each compound was calculated and a cut-off for potential positive hits was set at a Z-score of greater than three standard deviations. Thus, a compound is considered a hit only if it increases the percent EdU incorporation to above three standard deviation of the plate-averaged percent EdU incorporation.
Sorted beta cells were seeded in 384-well or 6-well plates coated with 804G matrix, and kept in culture for up to 15 days at 37° C. 5% CO2 using Ham F10 supplemented with 1 mM L-glutamine, 0.1 mg/ml streptomycin, 0.075 mg/ml penicillin, 50 μM of isobutyl-1-methylxanthine (IBMX) at 10 mM D-glucose with and without synthetic GCs (6 methyl-prednisolone (6MP), dexamethasone (DEX), GR-modulators (compound A (CPA), mifepristone (MIF), and NFκB inhibitors (JSH-23 en Bay11-7085). Total cell number and beta cell viability was evaluated after incubation with Hoechst 33342 and propidium iodide. All chemicals were from Sigma Life Sciences or Merck. Quantification of cell numbers and analysis of beta-cell viability was done using the Pathway Bioimager (BD Biosciences) and using IPlab and Attovision software for background subtraction as described prior (Assefa et al., 2014). Replicating beta cells were quantified after 24 or 72 hrs incubation with 5-ethynyl-2′-deoxyuridine (EdU, a thymidine analog) using the ClickIT EDU Alexa Fluor assay (Invitrogen). EdU-positive cells were expressed as percentage of total cell number.

The target of series [5] is T1, glucocorticoid receptor (GR) (Homo sapiens, UniProt P04150).
T1 sequence (P04150 1-777): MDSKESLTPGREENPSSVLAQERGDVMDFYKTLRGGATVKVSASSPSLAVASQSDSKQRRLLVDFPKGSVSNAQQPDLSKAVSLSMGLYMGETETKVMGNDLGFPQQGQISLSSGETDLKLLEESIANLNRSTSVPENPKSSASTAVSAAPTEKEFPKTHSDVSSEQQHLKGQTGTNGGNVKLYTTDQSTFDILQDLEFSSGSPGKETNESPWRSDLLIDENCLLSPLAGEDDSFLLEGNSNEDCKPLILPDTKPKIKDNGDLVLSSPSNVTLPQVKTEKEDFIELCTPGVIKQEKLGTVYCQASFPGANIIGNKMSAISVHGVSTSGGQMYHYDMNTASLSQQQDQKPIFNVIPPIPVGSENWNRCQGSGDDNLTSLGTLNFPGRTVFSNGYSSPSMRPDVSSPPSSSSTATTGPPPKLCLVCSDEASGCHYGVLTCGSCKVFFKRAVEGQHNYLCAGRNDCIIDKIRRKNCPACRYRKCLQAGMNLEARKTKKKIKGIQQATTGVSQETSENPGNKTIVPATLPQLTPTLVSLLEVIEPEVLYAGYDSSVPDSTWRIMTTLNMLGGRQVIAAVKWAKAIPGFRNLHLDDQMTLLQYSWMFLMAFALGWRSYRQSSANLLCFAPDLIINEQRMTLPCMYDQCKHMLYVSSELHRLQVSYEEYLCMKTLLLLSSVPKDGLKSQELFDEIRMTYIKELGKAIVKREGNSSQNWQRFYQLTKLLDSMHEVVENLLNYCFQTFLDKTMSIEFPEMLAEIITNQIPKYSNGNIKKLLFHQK
To be noted: cited from earlier work.

Marks after values point to notes of the source that are not given here.

In the case of `C[C@@H]1C[C@H]2[C@@H]3CCC4=CC(=O)C=C[C@]4(C)[C@@]3(F)[C@@H](O)C[C@]2(C)[C@@]1(O)C(=O)CO` [DEX, dexamethasone], the “loss of body weight” value in series [1] (DEX 1 mg/Kg BW daily for 5 consecutive days) turned out to be 20%. Also, the insulin content in series [1] (DEX 1 mg/Kg BW daily for 5 days, MOCK 48 ± 7) is listed as 22 ± 3 ng/K beta cells. Further, the “IPGT 90 min” value in series [1] (DEX 1 mg/Kg BW daily for 5 days, MOCK 81 ± 3) was found to be 278 ± 44 mg/dL. In series [1] (DEX 1 mg/Kg BW daily for 5 days, MOCK 82 ± 2), the “IPGT 120 min” value is 227 ± 62 mg/dL. Moreover, in series [1] (DEX 1 mg/Kg BW daily for 5 days, MOCK 83 ± 5), the “IPGT 60 min” value is 375 ± 54 mg/dL. In series [1] (DEX 1 mg/Kg BW daily for 5 days, MOCK 85 ± 3), this compound returned a Fasting glycemia of 169 ± 77 mg/dL. In series [1] (DEX 1 mg/Kg BW daily for 5 days, MOCK 100), the Islet insulin content is given as 37 ** ng/islet. In addition, the “IPGT 30 min” value in series [1] (DEX 1 mg/Kg BW daily for 5 days, MOCK 180 ± 14) was 456 ± 41 mg/dL. For the same compound, in series [1] (DEX 1 mg/Kg BW daily for 5 days, MOCK 360 ± 43), the “IPGT 15 min” value worked out at 497 ± 16 mg/dL. Further, the Serum insulin in series [1] (DEX 1 mg/Kg BW daily for 5 days, MOCK 4927 ± 724) was 8447 ± 472 pg/mL. In series [1] (DEX 1 mg/Kg BW daily i.p. for 5 days, MOCK 382 ± 13), the “Body weight Day 6” value is recorded as 304 ± 11 g. For the same compound, the “Body weight Day 0” value in series [1] (DEX group before treatment, MOCK 356 ± 8) is reported as 363 ± 13 g. Further, the “increase of the percentage beta cells positive for Ki67” value in the series on beta cells came out at 3 fold. In series [2], the “Cyclin B1 mRNA level (ΔΔCt values relative to control, adult male)” value is listed as 6.5 ± 2.5 ^3; the “Cyclin B2 mRNA level (ΔΔCt values relative to control, adult male)” value is 10.8 ± 5.1 ^3; the “CyclinD1 mRNA level (ΔΔCt values relative to control, adult male)” value is on record as 0.9 ± 0.4 ^; the “DLK1 mRNA level (ΔΔCt values relative to control, adult male)” value is on record as 33.0 ± 19.1 ^3. Moreover, in series [2], the “FKBP5 mRNA level (ΔΔCt values relative to control, adult male)” value is 2.4 ± 0.2 ^; the “ICAM1 mRNA level (ΔΔCt values relative to control, adult male)” value is given as 0.1 ± 0.1 ^3; the “MafA mRNA level (ΔΔCt values relative to control, adult male)” value was 0.3 ± 0.1 ^; the “MafB mRNA level (ΔΔCt values relative to control, adult male)” value was 0.6 ± 0.2 ^. Besides, in series [2], the “NPY mRNA level (ΔΔCt values relative to control, adult male)” value is reported as 3.3 ± 0.5 ^3; the “NR3C1 mRNA level (ΔΔCt values relative to control, adult male)” value is on record as 0.5 ± 0.1 ^2; the “Pdx1 mRNA level (ΔΔCt values relative to control, adult male)” value is on record as 0.4 ± 0.2 ^.
In turn, `C[C@]12C=CC(=O)C=C1CC[C@H]1[C@@H]3C[C@@H](O)[C@](O)(C(=O)CO)[C@@]3(C)C[C@H](O)[C@@]12F` [Triamcinolone] showed a Percent viable cells with rat beta cells [3] of 99%. For the same compound, in the series on rat beta cells [4] (control medium 5.6), the “Percent EdU+ cells” value was found to be 31.1%. The compound also displayed a Z-Score with rat beta cells [4] (hit cut-off three standard deviations) of 5.9. The “Relative Potencies GR” value in series [5] is on record as 5.
